We go through 16 compounds from PubChem BioAssay (NCI).

Common to all, as to assay: growth of human tumour cells (NCI), 48 h
Experiment [1] concerns 786-0 renal.
Experiment [2] concerns COLO 205 colon.
Experiment [3] relates to DU-145 prostate.
In experiment [4] the test system is HCT-116 colon.
In experiment [5] the test system is LOX IMVI melanoma.
Experiment [6] concerns OVCAR-4 ovarian.
Experiment [7] relates to PC-3 prostate.
For experiment [8], the system named is SF-539 CNS.
Experiment [9] deals with SK-MEL-2 melanoma.
For experiment [10], the system named is MDA-MB-231 breast.

Values joined by “and” are separate entries in the source; they are usually repeats but may differ in a detail not shown here. Identical values can stand only once.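 Cells were grown in 96-well plates and exposed to each compound for 48 hours at five concentrations; endpoints were interpolated linearly between bracketing concentrations, or set to the highest concentration if not reached. GI50: concentration for 50% inhibition of growth. TGI denotes the concentration required for complete inhibition of growth.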

In the case of `COc1ccc(NC(=S)NN=C(C)c2cccc(C(C)=NNC(=S)Nc3ccc(OC)cc3)n2)cc1`, the TGI in experiment [1], in experiment [2], in experiment [3], in experiment [4], in [5] and in experiment [6] was more than 100 µM in each case. Besides, the TGI in [7], in experiment [8] and in [9] was more than 100 µM in each case.

`CC1C(c2ccc(N(C)C)cc2)c2cc3c(cc2OC1N1CCCC1)OCO3` (stereo not given): the TGI in [1], in experiment [2], in experiment [3], in experiment [4], in experiment [5] and in experiment [6] was more than 100 µM each time. Further, the TGI in experiment [7] was more than 100 µM; in [8], 60.2 µM; in [9], more than 82.6 µM.

For `C/C(=N\Nc1nc2cc(C)ccc2s1)c1ccccn1`, the TGI is 9.59 µM in experiment [1]; 5.65 µM in [3]; 3.68 µM in [5]; 0.93 µM in [10]; more than 60.5 µM in experiment [6]; more than 23.1 µM in experiment [7]. The TGI in [8] amounted to 41.2 µM; in experiment [9], 1.35 µM.

For `COC(=O)c1ccc(CN2CCc3c([nH]c4ccccc34)C2CO)o1` (stereo not given), the TGI in experiment [1], in experiment [2], in experiment [3], in [10], in experiment [6] and in experiment [7] was more than 10 µM each time.

In the case of `COc1c2cc(C(C)(C)C)cc1CSCc1cc(C(C)(C)C)cc(c1OC)CCCCC2`, the TGI in experiment [1], in [2], in experiment [3], in experiment [4], in experiment [10] and in experiment [7] was more than 50 µM throughout. Further, the TGI in experiment [8] and in experiment [9] was more than 50 µM each time.

In the case of `COc1c2nc(CCl)n(C)c(=O)c2c(OC)c2c(=O)n(C)c(CCl)nc12`, the TGI in experiment [1] is 3.29 µM; in experiment [2], 2.71 µM; in experiment [3] it was 14 µM; in experiment [5], 1.75 µM; in [10] it was 2.88 µM; in experiment [6], more than 100 µM. The TGI in experiment [7] amounted to 2.68 µM; in [8] it was 13.1 µM.

As for `C=C1CC2CC[C@@]34C[C@@H]5O[C@@H]6C(O[C@H]7CC[C@H](CC(=O)OC8[C@@H](C)C9OC%10C[C@]%11(C[C@@H]%12O[C@@]%13(C[C@@H](C)[C@@H]%12O%11)C[C@H](C)[C@@H]%11OC%12CC(C(O)CO)OC%12C[C@@H]%11O%13)OC%10CC9O[C@H]8C[C@H]8O[C@@H](CC[C@@H]1O2)C[C@@H](C)C8=C)O[C@@H]7[C@@H]6O3)C5O4` (stereo not given in full), the GI50 in [2] was less than 0.000148 µM; in experiment [4], less than 0.000148 µM; in [5], less than 0.000148 µM; in experiment [6], more than 1.48 µM; in [8], less than 0.000148 µM. The TGI in [4] is 0.00327 µM; in experiment [5] it was 0.394 µM; in [6], more than 1.48 µM; in experiment [8], 0.00562 µM and 0.00215 µM; in experiment [9] it was 0.00727 µM.

As for `Nc1c(Br)cc(-c2cc(Br)c(N)c(Br)c2)cc1Br`, the TGI in experiment [1], in experiment [2], in [3], in [4], in experiment [5] and in experiment [10] was more than 100 µM throughout. Moreover, the TGI in [6], in experiment [7] and in experiment [8] was more than 100 µM throughout.

As for `CC(=O)N[C@@H](Cc1ccc(O)cn1)C(=O)NCc1cccc(F)c1`, the TGI in experiment [1], in [2], in [3], in experiment [4], in experiment [5] and in experiment [6] was more than 100 µM in each case. The TGI in [7], in experiment [8] and in [9] was more than 100 µM throughout.

In the case of `COc1ccc(-n2c(CCCC(=O)O)nc3c2C(=O)c2ccccc2C3=O)cc1`, the TGI in experiment [1], in experiment [2], in [3], in [4], in [5] and in [10] was more than 100 µM each time. Further, the TGI in experiment [6], in experiment [8] and in [9] was more than 100 µM each time.

Turning to `On1c(-c2ccccc2)c(-c2c(-c3ccccc3)n(O)c3ccccc23)c2ccccc21`, the TGI in experiment [1] is 39.7 µM; in experiment [4], more than 100 µM; in [5], 73.2 µM; in experiment [6], more than 100 µM; in experiment [8] it was 58.8 µM; in experiment [9], 59.2 µM.

For `O=C1Nc2ccccc2C(=O)OC(Cc2ccccc2)=Nc2ccccc21`, the TGI in experiment [1], in experiment [2], in [3], in experiment [4], in [5] and in [6] was more than 100 µM in each case. Moreover, the TGI in experiment [7], in [8] and in experiment [9] was more than 100 µM throughout.

Turning to `CN(C)[C@@H]1C(=O)C(C(N)=O)=C(O)[C@@]2(O)C(=O)C3=C(O)c4c(O)cccc4C[C@H]3C[C@@H]12`, the TGI was 5.92 µM in experiment [1]; 3.25 µM in experiment [2]; 3.28 µM in [4]; 3.26 µM in [6]; 3.84 µM in experiment [8]; 3.31 µM in experiment [9].

As for `COC(=O)/C(=C/c1ccc(OC)cc1)C(C(=O)O)=C(C)C`, the TGI in experiment [1], in experiment [2], in experiment [4], in [5], in experiment [8] and in [9] was more than 100 µM in each case.

Take `COc1cc2c(cc1O)[C@H](C)C(c1ccc(Cl)cc1)O2` (stereo not given in full): the TGI in experiment [1] was 32 µM; in [2], more than 100 µM; in experiment [4] it was 30.1 µM; in experiment [5] it was 29.4 µM; in experiment [6], more than 100 µM; in experiment [8] it was more than 100 µM. In experiment [9], this compound showed a TGI of 56 µM.

Take `C=CCN1C(=O)CS/C1=N\NC(=O)c1c(C)nc2sccn12`: the TGI in experiment [1], in experiment [2], in experiment [4], in experiment [5], in experiment [8] and in [9] was more than 100 µM throughout.
